Data reported in US10800741B2 (ANCUREALL PHARMACEUTICAL (SHANGHAI) CO., LTD., priority 2017, dated 2020).
Where two headings read alike, the source gives them in different places.

Key:
[1] = system: human non-small cell lung cancer cell line NCI-H1299 (NRAS Q61K mutation); test: Growth inhibition in combination with MEK1/2 inhibitor Trametinib, NCI-H1299 (NRAS Q61K mutation); format: cell-based; details: 5 days
Experimental: Test Example 5 Synergistic Inhibition Effect of the Present Compounds in Combination with MEK1/2 Inhibitor on the Growth of RAS Mutant Tumor Cells In Vitro
The cell culture, drug treatment and MTT assay of human intestinal cancer cell line HCT116 (KRAS G13D mutation) and human non-small cell lung cancer cell line NCI-H1299 (NRAS Q61K mutation) were performed according to the method of test example 1. Cells were treated with the MEK1/2 inhibitor Trametinib at 25 nM, 2.5 nM and 0.25 nM alone or in combination with compound 66 or 125 of the present invention (5 days).

[2] = biological target: T1, protein kinases (Homo sapiens, UniProt P07949, V804L); test: KINOMEscan in vitro binding to 468 labeled protein kinases; details: RET(V804L), read-out: Test compound/solvent control (%)
T1 construct: purchased Discovery X company (USA), KINOMEscan screening platform
Method in brief: (§1)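 Competition binding across 468 labelled kinases on the KINOMEscan platform, compound tested at 1000 nM, 10 nM and 1 nM, duplicate samples. Result given as percentage of DMSO solvent control; lower percentage means stronger binding.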

[3] = biological target: T2, protein kinases (Homo sapiens, UniProt P36888, N841I); test: as above; details: FLT3(N841I), read-out: Test compound/solvent control (%)
T2 construct: purchased Discovery X company (USA), KINOMEscan screening platform
T2 sequence (P36888 27-993 N841I): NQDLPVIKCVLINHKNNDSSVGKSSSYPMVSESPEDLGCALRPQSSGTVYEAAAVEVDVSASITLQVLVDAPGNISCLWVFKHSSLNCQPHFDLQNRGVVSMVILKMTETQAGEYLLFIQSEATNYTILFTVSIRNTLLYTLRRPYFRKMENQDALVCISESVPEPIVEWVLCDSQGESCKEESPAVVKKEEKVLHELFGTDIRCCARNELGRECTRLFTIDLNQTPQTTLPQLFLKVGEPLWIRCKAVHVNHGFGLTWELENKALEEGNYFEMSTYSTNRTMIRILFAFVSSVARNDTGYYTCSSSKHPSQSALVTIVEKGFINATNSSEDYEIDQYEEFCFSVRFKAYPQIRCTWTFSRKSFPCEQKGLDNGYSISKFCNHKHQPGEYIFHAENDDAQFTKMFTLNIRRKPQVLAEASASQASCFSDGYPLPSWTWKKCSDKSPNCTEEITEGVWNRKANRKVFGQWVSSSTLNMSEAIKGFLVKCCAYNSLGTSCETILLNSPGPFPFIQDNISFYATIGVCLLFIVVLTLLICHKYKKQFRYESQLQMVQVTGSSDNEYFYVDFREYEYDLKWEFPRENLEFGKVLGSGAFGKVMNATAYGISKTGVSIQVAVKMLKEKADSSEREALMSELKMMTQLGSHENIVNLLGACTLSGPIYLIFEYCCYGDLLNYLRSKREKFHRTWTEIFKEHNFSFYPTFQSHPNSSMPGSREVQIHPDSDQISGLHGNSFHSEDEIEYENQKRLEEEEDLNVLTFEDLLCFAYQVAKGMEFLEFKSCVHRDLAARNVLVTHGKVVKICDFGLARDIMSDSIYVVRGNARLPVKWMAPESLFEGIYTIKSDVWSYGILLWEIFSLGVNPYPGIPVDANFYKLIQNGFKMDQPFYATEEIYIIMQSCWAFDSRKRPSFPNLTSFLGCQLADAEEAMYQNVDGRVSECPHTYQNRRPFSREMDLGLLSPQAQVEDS
Method in brief: as §1

[4] = biological target: T3, protein kinases (Homo sapiens, UniProt P00519); test: as above; details: read-out: Test compound/solvent control (%); for remaining binding at 0.001 µM: 1 nM; for remaining binding at 0.01 µM: 10 nM; for remaining binding at 1 µM: 1000 nM
T3 construct: purchased Discovery X company (USA), KINOMEscan screening platform
Method in brief: as §1

T1 sequence (P07949 29-1114 V804L): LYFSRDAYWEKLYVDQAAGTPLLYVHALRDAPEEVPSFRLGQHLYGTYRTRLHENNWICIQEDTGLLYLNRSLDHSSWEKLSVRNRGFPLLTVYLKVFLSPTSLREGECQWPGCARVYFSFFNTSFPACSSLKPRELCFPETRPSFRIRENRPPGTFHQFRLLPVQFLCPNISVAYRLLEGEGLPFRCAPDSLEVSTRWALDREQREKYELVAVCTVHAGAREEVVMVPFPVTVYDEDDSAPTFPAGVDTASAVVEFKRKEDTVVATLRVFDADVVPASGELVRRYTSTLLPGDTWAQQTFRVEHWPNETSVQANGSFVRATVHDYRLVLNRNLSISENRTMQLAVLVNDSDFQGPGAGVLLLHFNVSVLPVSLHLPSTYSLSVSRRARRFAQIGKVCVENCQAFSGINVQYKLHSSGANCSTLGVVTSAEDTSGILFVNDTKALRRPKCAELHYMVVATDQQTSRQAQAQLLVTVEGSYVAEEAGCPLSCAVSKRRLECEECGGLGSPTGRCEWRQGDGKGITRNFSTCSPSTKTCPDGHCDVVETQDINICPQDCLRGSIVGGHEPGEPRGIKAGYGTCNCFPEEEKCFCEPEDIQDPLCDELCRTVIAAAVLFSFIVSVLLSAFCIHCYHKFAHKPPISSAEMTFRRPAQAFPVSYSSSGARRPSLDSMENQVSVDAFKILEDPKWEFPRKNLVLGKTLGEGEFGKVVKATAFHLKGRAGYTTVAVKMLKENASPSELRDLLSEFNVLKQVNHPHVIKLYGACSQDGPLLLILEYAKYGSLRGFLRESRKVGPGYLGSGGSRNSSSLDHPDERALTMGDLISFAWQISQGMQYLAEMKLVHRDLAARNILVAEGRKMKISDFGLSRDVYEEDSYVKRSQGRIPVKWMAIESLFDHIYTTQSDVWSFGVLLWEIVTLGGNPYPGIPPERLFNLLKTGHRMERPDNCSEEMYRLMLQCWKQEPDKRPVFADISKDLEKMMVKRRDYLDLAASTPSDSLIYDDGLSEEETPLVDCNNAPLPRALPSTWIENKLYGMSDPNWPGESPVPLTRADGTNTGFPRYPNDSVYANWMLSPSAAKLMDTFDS
T3 sequence (P00519 whole entry): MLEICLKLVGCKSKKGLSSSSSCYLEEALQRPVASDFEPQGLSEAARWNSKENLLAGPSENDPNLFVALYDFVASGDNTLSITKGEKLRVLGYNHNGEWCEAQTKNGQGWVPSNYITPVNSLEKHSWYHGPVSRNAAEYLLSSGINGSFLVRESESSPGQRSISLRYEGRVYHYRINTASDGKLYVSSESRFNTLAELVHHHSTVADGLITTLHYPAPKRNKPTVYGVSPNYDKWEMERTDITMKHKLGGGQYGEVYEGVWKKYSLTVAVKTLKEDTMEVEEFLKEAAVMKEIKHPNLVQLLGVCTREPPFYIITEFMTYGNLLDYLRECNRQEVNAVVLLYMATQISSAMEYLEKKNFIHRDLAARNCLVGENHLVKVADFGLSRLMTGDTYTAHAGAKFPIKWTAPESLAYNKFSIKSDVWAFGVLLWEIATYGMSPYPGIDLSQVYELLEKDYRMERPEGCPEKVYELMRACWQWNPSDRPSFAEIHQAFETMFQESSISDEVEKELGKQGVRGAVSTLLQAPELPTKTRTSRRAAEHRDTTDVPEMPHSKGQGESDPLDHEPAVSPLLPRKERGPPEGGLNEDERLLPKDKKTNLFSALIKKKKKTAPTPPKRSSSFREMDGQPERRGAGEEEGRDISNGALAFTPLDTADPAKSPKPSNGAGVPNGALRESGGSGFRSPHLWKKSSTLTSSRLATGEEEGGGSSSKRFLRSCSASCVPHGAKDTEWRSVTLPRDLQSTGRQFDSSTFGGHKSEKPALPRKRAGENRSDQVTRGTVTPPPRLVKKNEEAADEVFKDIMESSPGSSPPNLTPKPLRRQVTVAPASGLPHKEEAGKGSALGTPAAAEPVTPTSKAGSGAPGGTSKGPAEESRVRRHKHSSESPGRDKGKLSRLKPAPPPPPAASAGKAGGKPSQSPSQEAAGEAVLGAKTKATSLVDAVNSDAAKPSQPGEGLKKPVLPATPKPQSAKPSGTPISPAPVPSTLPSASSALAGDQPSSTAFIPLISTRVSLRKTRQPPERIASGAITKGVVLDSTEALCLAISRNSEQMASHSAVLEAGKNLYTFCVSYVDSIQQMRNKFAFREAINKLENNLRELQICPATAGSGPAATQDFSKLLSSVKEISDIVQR

remaining binding at 0.001 µM ([2]; 1 nM): 88%
remaining binding at 0.01 µM ([2]; 10 nM): 17%
remaining binding at 1 µM ([2]; 1000 nM): 0%
remaining binding at 0.001 µM ([3]; 1 nM): 88%
remaining binding at 0.01 µM ([3]; 10 nM): 17%
remaining binding at 1 µM ([3]; 1000 nM): 0.25%
remaining binding at 0.001 µM ([4]; ABL1-phosphorylated): 49%
remaining binding at 0.01 µM ([4]; ABL1-phosphorylated): 9.9%
remaining binding at 1 µM ([4]; ABL1-phosphorylated): 0.1%
remaining binding at 0.001 µM ([4]; ABL1-unphosphorylated): 41%
remaining binding at 0.01 µM ([4]; ABL1-unphosphorylated): 8.3%
remaining binding at 1 µM ([4]; ABL1-unphosphorylated): 0%
Structure (SMILES): COCCOc1cc2nccc(Oc3ccc(NC(=O)Nc4cc(C(C)(C)C)n[nH]4)c(Cl)c3)c2cc1NC(C)=O [Compound 66, N-[4-{4-[3-(5-tert-butyl-2H-pyrazol-3-yl)-ureido]-3-chloro-phenoxy}-7-(2-methoxy-ethoxy)-quinolin-6-yl]-acetamide]
inhibition at 0.0078 µM ([1]; Homo sapiens, NCI-H1299, 120 h, compound 7.8 nM alone (solvent instead of Trametinib), read-out: cell growth inhibition (percentage)): 1.39%
inhibition at 0.0156 µM ([1]; Homo sapiens, NCI-H1299, 120 h, compound 15.6 nM alone (solvent instead of Trametinib), read-out: cell growth inhibition (percentage)): 4.59%
cell growth inhibition (percentage) ([1]; compound 7.8 nM + Trametinib 0.25 nM): 11.67%
cell growth inhibition (percentage) ([1]; compound 7.8 nM + Trametinib 2.5 nM): 20.73%
cell growth inhibition (percentage) ([1]; compound 7.8 nM + Trametinib 25 nM): 37.88%
cell growth inhibition (percentage) ([1]; compound 15.6 nM + Trametinib 0.25 nM): 16.82%
cell growth inhibition (percentage) ([1]; compound 15.6 nM + Trametinib 2.5 nM): 26.10%
cell growth inhibition (percentage) ([1]; compound 15.6 nM + Trametinib 25 nM): 42.52%
